Experimental data: the NIST ThermoML archive (doi:10.1016/j.tca.2009.01.008)

How the values were obtained:
[1] = molar heat capacity at constant pressure; conditions: 101.33 kPa, Liquid, Vacuum adiabatic calorimetry
[2] = molar heat capacity at constant pressure; xn = mol fraction of the nth substance listed; conditions: 101 kPa, Liquid, Vacuum adiabatic calorimetry

OCCOCCO [diethylene glycol]
[1]
Conditions	molar heat capacity at constant pressure [J/K/mol]
303.15 K	248.2
313.15 K	251.3
323.15 K	255
333.15 K	259.2
343.15 K	263.8
353.15 K	266.8

OCCOCCO [diethylene glycol] + O
molar heat capacity at constant pressure [J/K/mol], [2]
Conditions	303.15 K	313.15 K	323.15 K	333.15 K	343.15 K	353.15 K
x1 = 0.2	111.8	113.5	115.3	117.4	119.3	121.7
x1 = 0.4	148.7	150.7	153.3	155.9	158.7	161.8
x1 = 0.5	167.6	169.9	172.6	175.5	178.7	182.2
x1 = 0.6	184.5	187.1	190.3	193.6	197.3	201.2
x1 = 0.8	217.9	221.2	225	229.1	233.6	238.5

OCCOCCOCCO [triethylene glycol]
[1]
Conditions	molar heat capacity at constant pressure [J/K/mol]
303.15 K	336.3
313.15 K	339.5
323.15 K	343.1
333.15 K	347.9
343.15 K	353.7
353.15 K	359.3

OCCOCCOCCO [triethylene glycol] + O
molar heat capacity at constant pressure [J/K/mol], [2]
Conditions	303.15 K	313.15 K	323.15 K	333.15 K	343.15 K	353.15 K
x1 = 0.2	129.3	131	132.9	135.1	137.2	139.7
x1 = 0.4	184.1	186.3	189	192.1	195.2	198.7
x1 = 0.5	211.3	213.6	216.5	219.8	223.4	227.3
x1 = 0.6	237.8	240.5	243.7	249.7	251.8	256.1
x1 = 0.8	288.3	291.8	295.7	300.3	306	311.3
